Columns and labels:
[1] = target: EphA2 receptor (Mus musculus, UniProt Q03145); assay type: binding; conditions: for activity in the binding assay (in words): EphA2-ephrin-A1 ELISA
[2] = test system: PC3 cells; assay: LDH assay; assay type: cell-based, human; conditions: 2 h, at the tested concentrations

Chain of EphA2 receptor (Q03145 26-538 limits assumed): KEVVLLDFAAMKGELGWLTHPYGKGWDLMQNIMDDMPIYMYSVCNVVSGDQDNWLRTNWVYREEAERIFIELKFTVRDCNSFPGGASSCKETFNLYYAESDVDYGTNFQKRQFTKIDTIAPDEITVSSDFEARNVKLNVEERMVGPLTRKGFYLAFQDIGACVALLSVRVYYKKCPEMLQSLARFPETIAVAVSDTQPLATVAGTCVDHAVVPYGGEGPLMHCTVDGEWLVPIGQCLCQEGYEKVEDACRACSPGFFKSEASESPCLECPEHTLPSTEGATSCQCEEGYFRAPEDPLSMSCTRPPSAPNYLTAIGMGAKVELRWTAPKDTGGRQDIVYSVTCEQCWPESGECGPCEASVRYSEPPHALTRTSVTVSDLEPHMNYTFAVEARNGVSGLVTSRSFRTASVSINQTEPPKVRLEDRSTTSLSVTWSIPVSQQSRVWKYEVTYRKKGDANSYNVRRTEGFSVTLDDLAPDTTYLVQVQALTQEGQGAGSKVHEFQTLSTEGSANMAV

| SMILES | IC50 [1] [µM] | activity in the binding assay (in words) [1] | other results |
| --- | --- | --- | --- |
| C[C@H](CCC(=O)N[C@H](CC(N)=O)C(=O)O)[C@H]1CC[C@H]2[C@@H]3CC[C@@H]4C[C@H](O)CC[C@]4(C)[C@H]3CC[C@]12C [Compound 11] | > 316 | – | – |
| C[C@H](CCC(=O)N[C@H](CC(=O)O)C(=O)O)[C@H]1CC[C@H]2[C@@H]3CC[C@@H]4C[C@H](O)CC[C@]4(C)[C@H]3CC[C@]12C [Compound 13] | > 316 | inactive | – |
| C[C@H](CCC(=O)N[C@@H](Cc1c[nH]c2ccccc12)C(=O)O)[C@H]1CC[C@H]2[C@@H]3CC[C@@H]4C[C@H](O)CC[C@]4(C)[C@H]3CC[C@]12C [Compound 20] | – | – | cytotoxic effect (LDH assay) [2]: nor had cytotoxic effect |
| C[C@H](CCC(=O)N[C@@H](CC(=O)O)C(=O)O)[C@H]1CC[C@H]2[C@@H]3CC[C@@H]4C[C@H](O)CC[C@]4(C)[C@H]3CC[C@]12C [Compound 12] | > 316 | inactive | – |
| CC(=O)CNC(=O)CC[C@@H](C)[C@H]1CC[C@H]2[C@@H]3CC[C@@H]4C[C@H](O)CC[C@]4(C)[C@H]3CC[C@]12C [Compound 3] | > 316 | inactive | – |
| C[C@H](CCC(=O)NCC(=O)O)[C@H]1CC[C@H]2[C@@H]3CC[C@@H]4C[C@H](O)CC[C@]4(C)[C@H]3CC[C@]12C [Compound 2, glycolithocholic acid] | – | – | reversibility of binding ([1]; 100 μM compound for 1 hour, with or without washing before 50 ng/mL ephrin-A1-Fc): reversible binder; nature of the antagonism ([1]; from Schild plot): competitive binding |
| C[C@H](CCC(=O)N[C@@H](CC(N)=O)C(=O)O)[C@H]1CC[C@H]2[C@@H]3CC[C@@H]4C[C@H](O)CC[C@]4(C)[C@H]3CC[C@]12C [Compound 10] | > 316 | – | – |

Reference: publication PMC3953198 (Journal of medicinal chemistry, 2013)
